ChEMBL document CHEMBL3585333, “Higenamine 4'-O-β-d-glucoside in the lotus plumule induces glucose uptake of L6 cells through β2-adrenergic receptor” (Bioorg Med Chem, 2015)
Activity calls are given as the source filed them. The rule behind the calls is not given here.

Legend:
Assay type in all cases: cell-based
[1] = molecular target: Beta-2 adrenergic receptor (Rattus norvegicus) (UniProt P10608); experiment: Activation of beta-2 adrenergic receptor in rat L6 cells assessed as enhancement of 2-deoxyglucose uptake at 10 uM preincubated for 4 hrs followed by 2-deoxyglucose addition measured after 20 mins by fluorescence assay in presence of AMPK inhibitor dorsomorphin
Sequence of Beta-2 adrenergic receptor (Rattus norvegicus) (P10608 whole entry, looked up): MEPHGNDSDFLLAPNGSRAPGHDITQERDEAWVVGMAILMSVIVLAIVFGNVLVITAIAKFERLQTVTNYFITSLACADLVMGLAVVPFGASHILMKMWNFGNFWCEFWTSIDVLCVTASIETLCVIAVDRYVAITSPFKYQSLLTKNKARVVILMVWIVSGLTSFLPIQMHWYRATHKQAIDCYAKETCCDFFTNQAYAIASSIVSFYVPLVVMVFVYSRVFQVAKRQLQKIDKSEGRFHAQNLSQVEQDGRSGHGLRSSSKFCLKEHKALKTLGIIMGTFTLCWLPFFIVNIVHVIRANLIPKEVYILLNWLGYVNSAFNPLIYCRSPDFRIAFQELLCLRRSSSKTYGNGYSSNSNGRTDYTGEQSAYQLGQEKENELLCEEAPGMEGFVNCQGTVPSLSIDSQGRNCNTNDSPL

[2] = molecular target: Beta-2 adrenergic receptor (Rattus norvegicus) (UniProt P10608); experiment: Activation of beta-2 adrenergic receptor in rat L6 cells assessed as enhancement of 2-deoxyglucose uptake at 10 uM preincubated for 4 hrs followed by 2-deoxyglucose addition measured after 20 mins by fluorescence assay in presence of PI3K inhibitor LY294002
[3] = molecular target: Beta-2 adrenergic receptor (Rattus norvegicus) (UniProt P10608); experiment: Activation of beta-2 adrenergic receptor in rat L6 cells assessed as enhancement of 2-deoxyglucose uptake preincubated for 4 hrs followed by 2-deoxyglucose addition measured after 20 mins by fluorescence assay
[4] = molecular target: Beta-2 adrenergic receptor (Rattus norvegicus) (UniProt P10608); experiment: Activation of beta-2 adrenergic receptor in rat L6 cells assessed as enhancement of 2-deoxyglucose uptake at 10 uM preincubated for 4 hrs followed by 2-deoxyglucose addition measured after 20 mins by fluorescence assay in presence of beta-2 selective adrenergic receptor antagonist ICI118551
[5] = molecular target: Beta-2 adrenergic receptor (Rattus norvegicus) (UniProt P10608); experiment: Activation of beta-2 adrenergic receptor in rat L6 cells assessed as enhancement of 2-deoxyglucose uptake at 10 uM preincubated for 4 hrs followed by 2-deoxyglucose addition measured after 20 mins by fluorescence assay in presence of non-selective beta-adrenergic receptor antagonist propranolol
[6] = molecular target: Beta-2 adrenergic receptor (Rattus norvegicus) (UniProt P10608); experiment: Activation of beta-2 adrenergic receptor in rat L6 cells assessed as enhancement of 2-deoxyglucose uptake at 10 uM preincubated for 4 hrs followed by 2-deoxyglucose addition measured after 20 mins by fluorescence assay relative to control

Q: With OC[C@H]1O[C@@H](Oc2ccc(C[C@@H]3NCCc4cc(O)c(O)cc43)cc2)[C@H](O)[C@@H](O)[C@@H]1O as the compound, how does the Activity [1] read?
A: The Activity was “Active”.

Q: What about the Activity [2] of the same compound?
A: The Activity was “Active”.

Q: And the Activity [3]?
A: The Activity was “Dose-dependent effect”.

Q: And the Activity [4]?
A: The Activity was “inactive”.

Q: What about the Activity [5] of the same compound?
A: Its Activity is “inactive”.

Q: What about the fold change (FC) [6] of the same compound?
A: The fold change (FC) was 2.1.
